Reference: the supplement of paper PMC10307832

Tests used:
Test in all cases: relative viability (nuclei count vs DMSO), 5 days (fraction); higher = more cells survive
[1] = compound: CC(C)C[C@H](NC(=O)[C@H](CCc1ccccc1)NC(=O)CN1CCOCC1)C(=O)N[C@@H](Cc1ccccc1)C(=O)N[C@@H](CC(C)C)C(=O)[C@@]1(C)CO1 [Carfilzomib] + COc1cccc2cc(-c3nc([C@H]4CC[C@H](C(=O)O)CC4)n4ncnc(N)c34)[nH]c12 [OSI-027] (partner 0.5 µM)
Outline: (§1)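 The day after seeding in 1536-well plates, lung cancer cell lines were treated by pin tool with a single drug, or with a fixed anchor-drug dose together with five library-drug doses (not always all listed) in √10 steps. After 5 days, a combined fix-and-stain solution (final 0.05% Triton X-100, 1% formaldehyde, 1 ug/ml Hoechst) was added. Nuclei counted on 4× images gave relative viability as treated counts over vehicle counts, reported as the median of duplicate plates.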

[2] = compound: CC(C)C[C@H](NC(=O)[C@H](CCc1ccccc1)NC(=O)CN1CCOCC1)C(=O)N[C@@H](Cc1ccccc1)C(=O)N[C@@H](CC(C)C)C(=O)[C@@]1(C)CO1 [Carfilzomib] + C[C@]1(O)C[C@@H](c2nc(-c3ccc4ccc(-c5ccccc5)nc4c3)c3c(N)nccn32)C1 [Linsitinib] (partner 1 µM)
Outline: as §1

[3] = compound: CC(C)C[C@H](NC(=O)[C@H](CCc1ccccc1)NC(=O)CN1CCOCC1)C(=O)N[C@@H](Cc1ccccc1)C(=O)N[C@@H](CC(C)C)C(=O)[C@@]1(C)CO1 [Carfilzomib] + O=C(c1cc(Cc2n[nH]c(=O)c3ccccc23)ccc1F)N1CCN(C(=O)C2CC2)CC1 [Olaparib] (partner 8 µM)
Outline: as §1

[4] = compound: O=C(c1cc(Cc2n[nH]c(=O)c3ccccc23)ccc1F)N1CCN(C(=O)C2CC2)CC1 [Olaparib] + Cc1cc(Nc2cc(N3CCN(C)CC3)nc(Sc3ccc(NC(=O)C4CC4)cc3)n2)n[nH]1 [Tozasertib] (partner 0.1 µM)
Outline: as §1

Cell Line PC-14 has a relative viability ([1]; first compound 0.001 µM) of 0.904, a relative viability ([1]; first compound 0.003162 µM) of 0.962 and a relative viability ([1]; first compound 0.01 µM) of 0.603. It also gave a relative viability ([1]; first compound 0.03162 µM) of 0.0409, a relative viability ([1]; first compound 0.1 µM) of 0.0529 and a relative viability ([2]; first compound 0.001 µM) of 1.09. It also gave a relative viability ([2]; first compound 0.003162 µM) of 0.937, a relative viability ([2]; first compound 0.01 µM) of 1.08 and a relative viability ([2]; first compound 0.03162 µM) of 0.215. The relative viability ([2]; first compound 0.1 µM) was 0.12, the relative viability ([3]; first compound 0.001 µM) was 0.281 and the relative viability ([3]; first compound 0.003162 µM) was 0.334. For the same cell line, the relative viability ([3]; first compound 0.01 µM) was 0.243, the relative viability ([3]; first compound 0.03162 µM) was 0.0393 and the relative viability ([3]; first compound 0.1 µM) was 0.0576. For the same cell line, the relative viability ([4]; first compound 0.08 µM) was 0.602, the relative viability ([4]; first compound 0.253 µM) was 0.557 and the relative viability ([4]; first compound 2.53 µM) was 0.536. The relative viability ([4]; first compound 8 µM) was 0.419.
For RERF-LC-KJ, the relative viability ([1]; first compound 0.001 µM) was 0.551, the relative viability ([1]; first compound 0.003162 µM) was 0.525 and the relative viability ([1]; first compound 0.01 µM) was 0.72. The relative viability ([1]; first compound 0.03162 µM) was 0.322, the relative viability ([1]; first compound 0.1 µM) was 0.221 and the relative viability ([2]; first compound 0.001 µM) was 0.888. For the same cell line, the relative viability ([2]; first compound 0.003162 µM) was 0.919, the relative viability ([2]; first compound 0.01 µM) was 1.05 and the relative viability ([2]; first compound 0.03162 µM) was 0.776. It also gave a relative viability ([2]; first compound 0.1 µM) of 0.353, a relative viability ([3]; first compound 0.001 µM) of 1.05 and a relative viability ([3]; first compound 0.003162 µM) of 0.898. For the same cell line, the relative viability ([3]; first compound 0.01 µM) was 0.91, the relative viability ([3]; first compound 0.03162 µM) was 0.379 and the relative viability ([3]; first compound 0.1 µM) was 0.22. For the same cell line, the relative viability ([4]; first compound 0.08 µM) was 0.531, the relative viability ([4]; first compound 0.253 µM) was 0.453 and the relative viability ([4]; first compound 2.53 µM) was 0.505. The relative viability ([4]; first compound 8 µM) was 0.475.
With SK-LU-1 the relative viability ([1]; first compound 0.001 µM) was 0.36, the relative viability ([1]; first compound 0.003162 µM) was 0.362 and the relative viability ([1]; first compound 0.01 µM) was 0.399. For the same cell line, the relative viability ([1]; first compound 0.03162 µM) was 0.102, the relative viability ([1]; first compound 0.1 µM) was 0.138 and the relative viability ([2]; first compound 0.001 µM) was 1.08. It also gave a relative viability ([2]; first compound 0.003162 µM) of 1.34, a relative viability ([2]; first compound 0.01 µM) of 0.949 and a relative viability ([2]; first compound 0.03162 µM) of 0.173. The relative viability ([2]; first compound 0.1 µM) was 0.161, the relative viability ([3]; first compound 0.001 µM) was 0.421 and the relative viability ([3]; first compound 0.003162 µM) was 0.54. For the same cell line, the relative viability ([3]; first compound 0.01 µM) was 0.438, the relative viability ([3]; first compound 0.03162 µM) was 0.198 and the relative viability ([3]; first compound 0.1 µM) was 0.147. For the same cell line, the relative viability ([4]; first compound 0.08 µM) was 0.355, the relative viability ([4]; first compound 0.253 µM) was 0.323 and the relative viability ([4]; first compound 2.53 µM) was 0.335. The relative viability ([4]; first compound 8 µM) was 0.247.
For SK-MES-1, the relative viability ([1]; first compound 0.001 µM) was 0.637, the relative viability ([1]; first compound 0.003162 µM) was 0.632 and the relative viability ([1]; first compound 0.01 µM) was 0.652. The relative viability ([1]; first compound 0.03162 µM) was 0.336, the relative viability ([1]; first compound 0.1 µM) was 0.145 and the relative viability ([2]; first compound 0.001 µM) was 1.17. The relative viability ([2]; first compound 0.003162 µM) was 1.16, the relative viability ([2]; first compound 0.01 µM) was 1.17 and the relative viability ([2]; first compound 0.03162 µM) was 1.03. The relative viability ([2]; first compound 0.1 µM) was 0.334, the relative viability ([3]; first compound 0.001 µM) was 0.709 and the relative viability ([3]; first compound 0.003162 µM) was 0.847. It also gave a relative viability ([3]; first compound 0.01 µM) of 0.775, a relative viability ([3]; first compound 0.03162 µM) of 0.276 and a relative viability ([3]; first compound 0.1 µM) of 0.146. The relative viability ([4]; first compound 0.08 µM) was 0.962, the relative viability ([4]; first compound 0.253 µM) was 0.828 and the relative viability ([4]; first compound 2.53 µM) was 0.818. For the same cell line, the relative viability ([4]; first compound 8 µM) was 0.562.
SW 1573 gave a relative viability ([1]; first compound 0.001 µM) of 0.717, a relative viability ([1]; first compound 0.003162 µM) of 0.771 and a relative viability ([1]; first compound 0.01 µM) of 0.403. The relative viability ([1]; first compound 0.03162 µM) was 0.0525, the relative viability ([1]; first compound 0.1 µM) was 0.0647 and the relative viability ([2]; first compound 0.001 µM) was 0.736. The relative viability ([2]; first compound 0.003162 µM) was 0.881, the relative viability ([2]; first compound 0.01 µM) was 0.75 and the relative viability ([2]; first compound 0.03162 µM) was 0.268. For the same cell line, the relative viability ([2]; first compound 0.1 µM) was 0.0735, the relative viability ([3]; first compound 0.001 µM) was 0.587 and the relative viability ([3]; first compound 0.003162 µM) was 0.487. For the same cell line, the relative viability ([3]; first compound 0.01 µM) was 0.215, the relative viability ([3]; first compound 0.03162 µM) was 0.0532 and the relative viability ([3]; first compound 0.1 µM) was 0.0533. The relative viability ([4]; first compound 0.08 µM) was 0.148, the relative viability ([4]; first compound 0.253 µM) was 0.165 and the relative viability ([4]; first compound 2.53 µM) was 0.234. For the same cell line, the relative viability ([4]; first compound 8 µM) was 0.172.
UMC-11 showed a relative viability ([1]; first compound 0.001 µM) of 0.503, a relative viability ([1]; first compound 0.003162 µM) of 0.474 and a relative viability ([1]; first compound 0.01 µM) of 0.496. For the same cell line, the relative viability ([1]; first compound 0.03162 µM) was 0.426, the relative viability ([1]; first compound 0.1 µM) was 0.211 and the relative viability ([2]; first compound 0.001 µM) was 0.981. For the same cell line, the relative viability ([2]; first compound 0.003162 µM) was 1.03, the relative viability ([2]; first compound 0.01 µM) was 1.01 and the relative viability ([2]; first compound 0.03162 µM) was 0.949. For the same cell line, the relative viability ([2]; first compound 0.1 µM) was 0.224, the relative viability ([3]; first compound 0.001 µM) was 0.342 and the relative viability ([3]; first compound 0.003162 µM) was 0.326. The relative viability ([3]; first compound 0.01 µM) was 0.315, the relative viability ([3]; first compound 0.03162 µM) was 0.347 and the relative viability ([3]; first compound 0.1 µM) was 0.205. The relative viability ([4]; first compound 0.08 µM) was 0.231, the relative viability ([4]; first compound 0.253 µM) was 0.208 and the relative viability ([4]; first compound 2.53 µM) was 0.235. The relative viability ([4]; first compound 8 µM) was 0.253.
